# Data as given in patent US9981933B2, “Detergent compositions” (INNOSPEC LIMITED, priority 2013, dated 2018).
# Key:
# [1] = In house foaming test (comparative foam heights); type: physicochemical; details: 1 wt % surfactant solution; relative to 1 wt % Sodium Laureth Sulphate (3EO) = 100
# Experimental: A 1 wt % surfactant solution was prepared. The foam heights were measured using an in house foaming test and the results were compared with those obtained using a composition comprising 1 wt % Sodium Laureth Sulphate (3EO) [SLES].
# [2] = system: Zein; assay: In house qualitative test based on the Zein test (irritancy/mildness); type: in vitro; details: 1% surfactant solution; qualitative comparison
# Experimental: The mass of residual Zein is determined gravimetrically.
Compound,Relative foam height compared to SLES as % [1] [%],irritancy/mildness [2]
"CCCCCCCCCCCC(=O)OC[C@H](O)[C@H]1OC(=O)C(O)=C1O [Compound 1, Ascorbyl Monolaurate]",32,–
Ascorbyl Monolaurate Sulphate [Compound 2],105,milder than many commercially available personal care surfactants including Sodium Laureth Sulfate (3EO) [SLES]
Sodium Laureth Sulphate (3EO),100,–
